Experimental data taken from ChEMBL document CHEMBL3232725, “2-Aryl-3H-indol-3-ones: synthesis, electrochemical behaviour and antiplasmodial activities” (Eur J Med Chem, 2014).

Legend:
[1] = Cytotoxicity against human MCF7 cells after 48 hrs by XTT reduction assay; format: cell-based
[2] = Selectivity index, ratio of CC50 for human MCF7 cells to IC50 for chloroquine-resistant Plasmodium falciparum FcB1 infected in RBC; format: functional
[3] = tested on: Plasmodium falciparum; assay: Antiplasmodial activity against chloroquine-resistant Plasmodium falciparum FcB1 infected in RBC assessed as inhibition of [3H]-hypoxanthine incorporation after 48 hrs by beta-counting; format: functional, organism-based; settings: FcB1/Columbia

SMILES | CC50 at 48 h [1] [nM] | Ratio CC50/IC50 [2] | IC50 [3] [nM]
COc1ccc(C2=Nc3ccc(OC)cc3C2=O)cc1 | 30700 | 381.4 | 80
O=C1C(c2ccc(O)cc2)=Nc2ccccc21 | 130000 | 1289 | 101
COc1ccc2c(c1)C(=O)C(c1ccc(O)cc1)=N2 | 16000 | 164 | 99
O=C1C(c2ccccc2)=Nc2ccccc21 | 164000 | 135 | 1330
O=C1C(c2ccc(Cl)cc2)=Nc2ccccc21 | 20300 | 105 | 192
COc1ccc2c(c1)C(=O)C(c1ccccc1)=N2 | 21000 | 146 | 141
COc1ccc2c(c1)C(=O)C(c1ccc(N(C)C)cc1)=N2 | 20700 | 423.4 | 49
C[C@H]1[C@H](OC(=O)CCC(=O)O)O[C@@H]2O[C@@]3(C)CC[C@H]4[C@H](C)CC[C@@H]1[C@@]24OO3 [SODIUM ARESUNATE] | – | – | 6
COc1ccc2c(c1)C(=O)C(c1ccc(OC(C)C)cc1)=N2 | 11200 | 127 | 88
COc1ccc(C2=Nc3ccccc3C2=O)cc1 | 38000 | 74 | 514
